Measurements as given in article PMC11714206, “Massively Parallel Screening of Toll/Interleukin‐1 Receptor (TIR)‐Derived Peptides Reveals Multiple Toll‐Like Receptors (TLRs)‐Targeting Immunomodulatory Peptides” (Advanced Science, 2024).
“And” between values parts separate entries of the source, which are not always exact repeats. Identical values can stand only once. One block for each sequence: values may come before it.

Target: T1, MAL^TIR (Homo sapiens, UniProt P58753)
T1 construct: MAL (residues 79–221); 6xHis; made in house; host or cells: E. coli BL21 (DE3)
Assay: T‐Surf phage library (P8 and P3) selection against MAL^TIR, four rounds, NGS read counts
Assay type: binding
Conditions: for P8_MAL Rank (after) / P8_MAL Rank (before): P8 library; for Population: 4th round of selection against MAL TIR, share of NGS reads; for P3_MAL Rank (after) / P3_MAL Rank (before): P3 library
In short: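 Four panning rounds on TIR domain adsorbed at 5 µg mL^−1; binding 1 h at 20–22 °C, elution with 100 mM HCl. Output: NGS read counts of round‐4 pools versus naïve library.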

[1] = selection against MAL, rank by count after grouping
[2] = selection against MAL, rank by count before grouping
[3] = P8_MAL: rank by count after grouping
[4] = P8_MAL: rank by count before grouping
[5] = selection against MAL, rank after grouping
[6] = selection against MAL, rank before grouping
[7] = selection against MAL TIR, rank by count after grouping
[8] = selection against MAL TIR, rank by count before grouping
[9] = P8_MAL pool: P8 T-Surf phage library
[10] = 4R selection against MAL, rank after grouping
[11] = 4R selection against MAL, rank before grouping
[12] = P3_MAL: rank by count after grouping
[13] = P3_MAL: rank by count before grouping
[14] = P3_MAL pool: P3 T-Surf phage library

T1 sequence (P58753 79-221): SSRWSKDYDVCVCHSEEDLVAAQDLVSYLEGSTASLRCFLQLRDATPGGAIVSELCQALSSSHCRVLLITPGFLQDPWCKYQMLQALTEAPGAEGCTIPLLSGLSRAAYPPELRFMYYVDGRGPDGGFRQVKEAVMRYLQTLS

Sequence: WFYESLVSLILRDTIV
- Rank (after) [3]: 122
- Rank (before) [4]: 1299

Sequence: WFYESLVSMIMRDTKV
- P8_MAL Rank (after) [7]: 213
- P8_MAL Rank (before) [8]: 1303

Sequence: WFYGRLVSLMLRDAKR
- P8_MAL Rank (after) [10]: 595
- P8_MAL Rank (before) [11]: 1130

Sequence: WFYKRLVSLILRDTKV
- Population [9]: 0.00402%

Sequence: WFYNHLVSLFLRDTKV
- P8_MAL Rank (after) [5]: 520
- P8_MAL Rank (before) [6]: 1306

Sequence: WFYVRLVILALRDNNM
- P8_MAL Rank (after) [1]: 690
- P8_MAL Rank (before) [2]: 1128

Sequence: WHFHLRLRMPDPLQKI
- Rank (after) [12]: 432
- Rank (before) [13]: 1297

Sequence: WHFPLPLRMQELLRKM
- Rank (after) [12]: 436
- Rank (before) [13]: 1289

Sequence: WHLHLRLRMHDLLQQM
- P3_MAL Rank (after) [5]: 537
- P3_MAL Rank (before) [6]: 1311

Sequence: WIYERLVSRILRDTKV
- Rank (after) [3]: 163
- Rank (before) [4]: 1430

Sequence: WLYERLVGLILRYTKV
- P8_MAL Rank (after) [10]: 638
- P8_MAL Rank (before) [11]: 1425

Sequence: WLYVRLVSLILRDTKV
- Rank (after) [3]: 144
- Rank (before) [4]: 1392

Sequence: WQFHLRLRMHELLQKM
- P3_MAL Rank (after) [7]: 245
- P3_MAL Rank (before) [8]: 1314

Sequence: WRCLNFVPRCIMCCR
- P3_MAL Rank (after) [5]: 482
- P3_MAL Rank (before) [6]: 1287

Sequence: WSLFTVRSVLYAMSPA
- P8_MAL Rank (after) [5]: 518
- P8_MAL Rank (before) [6]: 1407

Sequence: WSYERLVRLILRDTKV
- P8_MAL Rank (after) [5]: 539
- P8_MAL Rank (before) [6]: 1406

Sequence: WSYERLVSLILRDTKV
- Population [9]: 0.0034%

Sequence: YAARANSGFHTFRDND
- P3_MAL Rank (after) [1]: 740
- P3_MAL Rank (before) [2]: 1489

Sequence: YAFKGNLHRYLVQRGV
- Rank (after) [12]: 162
- Rank (before) [13]: 1483

Sequence: YAFSGHLLHDLVLIRE
- Rank (after) [12]: 427
- Rank (before) [13]: 1347

Sequence: YAFTCHLHRYLVQRGV
- Population [14]: 0.00413%

Sequence: YAFTDHLHRYLVQRSE
- P3_MAL Rank (after) [5]: 555
- P3_MAL Rank (before) [6]: 1462

Sequence: YAFTDHLHRYVVQRGV
- P3_MAL Rank (after) [7]: 209
- P3_MAL Rank (before) [8]: 1463

Sequence: YAFTGHFHCCKLQRGV
- P3_MAL Rank (after) [10]: 666
- P3_MAL Rank (before) [11]: 1358

Sequence: YAFTGHLERHEVQRGV
- P3_MAL Rank (after) [1]: 715
- P3_MAL Rank (before) [2]: 1367

Sequence: YAFTGHLHCYLVQRGI
- P3_MAL Rank (after) [7]: 194
- P3_MAL Rank (before) [8]: 1375

Sequence: YAFTGHLHGSLLQRRV
- P3_MAL Rank (after) [10]: 670
- P3_MAL Rank (before) [11]: 1376

Sequence: YAFTGHLHHYFAAKGIKM
- Rank (after) [12]: 385
- Rank (before) [13]: 1428

Sequence: YAFTGHLHHYLVQRGV
- Population [14]: 0.00564%

Sequence: YAFTGHLHQFHSWV
- Rank (after) [12]: 480
- Rank (before) [13]: 1431

Sequence: YAFTGHLHRSLVQRGV
- Population [14]: 0.00413%

Sequence: YAFTGHLHRYHLPAPQH
- P3_MAL Rank (after) [7]: 277
- P3_MAL Rank (before) [8]: 739

Sequence: YAFTGHLHRYLAQRGV
- Population [14]: 0.00488%

Sequence: YAFTGHLHRYLCSVA
- Rank (after) [12]: 144
- Rank (before) [13]: 508

Sequence: YAFTGHLHRYLLQKM
- P3_MAL Rank (after) [7]: 254
- P3_MAL Rank (before) [8]: 737

Sequence: YAFTGHLHRYLMPRGV
- P3_MAL Rank (after) [1]: 698
- P3_MAL Rank (before) [2]: 1420

Next, values leading:

- P8_MAL Rank (after) [1]: 684
- P8_MAL Rank (before) [2]: 1253
Sequence: WFYERRVSLILLLTIV

- P8_MAL Rank (after) [5]: 547
- P8_MAL Rank (before) [6]: 1298
Sequence: WFYESLVSLLTRDTKV

- Population [9]: 0.0034%
Sequence: WFYGRLVSLILRDTKV

- P8_MAL Rank (after) [10]: 619
- P8_MAL Rank (before) [11]: 1307
Sequence: WFYKPLVSLILRDTKA

- P3_MAL Rank (after) [1]: 738
- P3_MAL Rank (before) [2]: 1300
Sequence: WHFHLRLRMHDLLQNI

- P3_MAL Rank (after) [10]: 582
- P3_MAL Rank (before) [11]: 1294
Sequence: WHFHLRLRMLALLQKM

- P3_MAL Rank (after) [1]: 694
- P3_MAL Rank (before) [2]: 1290
Sequence: WHFHVRLCLRKLLQAM

- Population [9]: 0.00402% and 0.00371%
Sequence: WLYERLVSLILRDTKV

- Rank (after) [3]: 108
- Rank (before) [4]: 1426
Sequence: WLYERLVSLILRDTQV

- Rank (after) [3]: 168
- Rank (before) [4]: 1429
Sequence: WLYERLVSLSLRDTKV

- Rank (after) [3]: 390
- Rank (before) [4]: 1526
Sequence: YAASPWWFDELVKIVG

- P3_MAL Rank (after) [1]: 742
- P3_MAL Rank (before) [2]: 1345
Sequence: YAFPFHLFSCPELRGV

- Rank (after) [12]: 133
- Rank (before) [13]: 726
Sequence: YAFTAICIVIWCSVA

- Population [14]: 0.00451%
Sequence: YAFTDHLHRYLVQRGV

- P3_MAL Rank (after) [1]: 686
- P3_MAL Rank (before) [2]: 1430
Sequence: YAFTGHLHHIWCSVA

- Rank (after) [12]: 158
- Rank (before) [13]: 727
Sequence: YAFTGHLHRFWCSVA

- Rank (after) [12]: 154
- Rank (before) [13]: 1381
Sequence: YAFTGHLHRSLVQSGV

- P3_MAL Rank (after) [5]: 543
- P3_MAL Rank (before) [6]: 1418
Sequence: YAFTGHLHRYLLQRGG
